We go through 17 molecules from patent publication US20230022488A1, “Laundry Composition” (FIRMENICH SA, priority 2019, published 2023).

Some results are limits rather than exact numbers.

The subject of the assay is panelist. Nature of the assay: Odor threshold concentration (Log T / Log ODT) by gas chromatograph with sniff port. Set-up: species or system human. As for the experimental part: “High impact perfume raw materials” should be understood as perfume raw materials having a Log T<−4. The odor threshold concentration of a chemical compound is determined in part by its shape, polarity, partial charges and molecular mass. For convenience, the threshold concentration is presented as the common logarithm of the threshold concentration, i.e., Log [Threshold] (“Log T”).
The odor threshold concentration of a perfuming compound is determined by using a gas chromatograph (“GC”). Specifically, the gas chromatograph is calibrated to determine the exact volume of the perfume oil ingredient injected by the syringe, the precise split ratio, and the hydrocarbon response using a hydrocarbon standard of known concentration and chain-length distribution. The air flow rate is accurately measured and, assuming the duration of a human inhalation to last 12 seconds, the sampled volume is calculated. […] To determine the threshold concentration, solutions are delivered to the sniff port at the back-calculated concentration. A panelist sniffs the GC effluent and identifies the retention time when odor is noticed. The average across all panelists determines the odor threshold concentration of the perfuming compound. The determination of odor threshold is described in more detail in C.

The mark [1] stands for this setting: ingredient of Perfume oil C (Table 5).
The mark [2] stands for this setting: ingredient of Perfume oil A (Table 1).
[3] abbreviates: ingredient of Perfume oil B (Table 3).
The mark [4] stands for this setting: ingredient of Perfume oil D (Table 7).

Regarding “1-OXA-12-CYCLOHEXADECEN-2-ONE (A) + 1-OXA-13-CYCLOHEXADECEN-2-ONE (B)”, under setting [1], the “Log ODT” value is listed as more than −4.
As for “2-METHYLBUTYL SALICYLATE (A) + PENTYL SALICYLATE (B)”, the “Log ODT” value under setting [2] is more than −4.
For the molecule “3,5,6-TRIMETHYL-3-CYCLOHEXENE-1-CARBALDEHYDE (A) + 2,4,6-TRIMETHYL-3-CYCLOHEXENE-1-CARBALDEHYDE (B)”, the “Log ODT” value under setting [1] is more than −4.
On to “3,7-DIMETHYL-2,6-NONADIENENITRILE (A) + 3,7-DIMETHYL-3,6-NONADIENENITRILE (B)”, for which the “Log ODT” value under setting [1] is given as more than −4.
For “3-(4-ETHYLPHENYL)-2,2-DIMETHYLPROPANAL (A) + 3-(2-ETHYLPHENYL)-2,2-DIMETHYLPROPANAL (B)”, the “Log ODT” value under setting [3] is on record as more than −4.
Regarding “10-UNDECENAL (A) + (9E)-9-UNDECENAL (B) + (9Z)-9-UNDECENAL (C)”, the “Log ODT” value runs as follows: under setting [3], less than −4; under setting [1], less than −4.
Regarding `CC(C)c1cccc(C(C)CC=O)c1` (racemic) [(+−)-3-(3-ISOPROPYL-1-PHENYL)BUTANAL], the “Log ODT” value under setting [3] was less than −4.
Turning to `CCCCC[C@H]1C(=O)CC[C@@H]1CC(=O)OC` (racemic) [METHYL 2-((1RS,2RS)-3-OXO-2-PENTYLCYCLOPENTYL) ACETATE], the “Log ODT” value is recorded as more than −4 under setting [2] and more than −4 under setting [1].
For the molecule `c1ccc(Oc2ccccc2)cc1` [1,1′-OXYDIBENZENE], under setting [2], the “Log ODT” value is on record as more than −4.
Consider “(1 RS,2RS)-2,4-DIMETHYL-3-CYCLOHEXENE-1-CARBALDEHYDE (A) + (1 RS,2SR)-2,4-DIMETHYL-3-CYCLOHEXENE-1-CARBALDEHYDE (B)”, for which the “Log ODT” value reads like this: under setting [2], more than −4; under setting [1], more than −4.
Regarding “(2RS,4SR)-4-METHYL-2-(2-METHYL-1-PROPEN-1-YL)TETRAHYDRO-2H-PYRAN (A) + (2RS,4RS)-4-METHYL-2-(2-METHYL-1-PROPEN-1-YL)TETRAHYDRO-2H-PYRAN (B)”, the “Log ODT” value under setting [2] is given as more than −4 and the “Log ODT” value under setting [3] is given as more than −4.
Consider “(2Z)-1,1-DIETHOXY-3,7-DIMETHYL-2,6-OCTADIENE (A) + (2E)-1,1-DIETHOXY-3,7-DIMETHYL-2,6-OCTADIENE (B)”, for which the “Log ODT” value by setting is: under setting [3], more than −4; under setting [4], more than −4.
Consider “(+)-(3S)-3-[(1R)-4-METHYL-3-CYCLOHEXEN-1-YL]BUTANAL (A) + (+)-(3R)-3-[(1R)-4-METHYL-3-CYCLOHEXEN-1-YL]BUTANAL”, for which the “Log ODT” value under setting [4] was more than −4.
Regarding “(+−)-4-METHYLENE-2-PHENYLTETRAHYDRO-2H-PYRAN (A) + (+−)-4-METHYL-6-PHENYL-3,6-DIHYDRO-2H-PYRAN (B) + (+−)-4-METHYL-2-PHENYL-3,6-DIHYDRO-2H-PYRAN (C)”, the “Log ODT” value was less than −4 under setting [3] and less than −4 under setting [4].
As for “(+−)-(3E)-3-METHYL-4-(2,6,6-TRIMETHYL-2-CYCLOHEXEN-1-YL)-3-BUTEN-2-ONE (A) + (+−)-(1E)-1-(2,6,6-TRIMETHYL-2-CYCLOHEXEN-1-YL)-1-PENTEN-3-ONE (B)”, the “Log ODT” value under setting [1] is less than −4.
For the molecule “.ALPHA.-DIHYDROTERPINEOL (A) + .BETA.-DIHYDROTERPINEOL (B)”, the “Log ODT” value under setting [3] is recorded as more than −4.
Regarding “TRICYCLO[5.2.1.0~2,6~]DEC-3-EN-8-YL ACETATE (A) + TRICYCLO[5.2.1.0~2,6~]DEC-4-EN-8-YL ACETATE (B)”, the “Log ODT” value runs as follows: under setting [2], more than −4; under setting [3], more than −4.
